“Also recorded” adds a separate entry of the source.
Key:
[1] = target: T1, Mushroom tyrosinase (mTyr) (Agaricus bisporus, UniProt C7FF04); experiment: Mushroom tyrosinase inhibition, L-tyrosine substrate (monophenolase); type: biochemical; conditions: for inhibition at 100 µM: read-out: Mushroom Tyrosinase L-Tyrosine 100 µM inhibition (%); for Type of inhibition (monophenolase): L-tyrosine, Lineweaver-Burk and Dixon plots
T1 construct: purchased Sigma Chemical Co. T3824-50KU
Target sequence in this assay (C7FF04 1-392): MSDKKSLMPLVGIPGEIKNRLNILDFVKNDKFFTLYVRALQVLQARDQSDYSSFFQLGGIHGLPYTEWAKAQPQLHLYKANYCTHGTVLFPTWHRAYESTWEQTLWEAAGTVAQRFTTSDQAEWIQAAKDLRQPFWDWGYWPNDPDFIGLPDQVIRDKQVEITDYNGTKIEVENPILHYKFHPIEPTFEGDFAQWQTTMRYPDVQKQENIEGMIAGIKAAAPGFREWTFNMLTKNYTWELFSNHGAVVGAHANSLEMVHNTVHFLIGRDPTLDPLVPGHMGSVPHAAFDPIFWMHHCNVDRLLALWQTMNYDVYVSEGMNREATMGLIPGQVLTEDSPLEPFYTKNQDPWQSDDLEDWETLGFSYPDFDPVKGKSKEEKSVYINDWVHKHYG

[2] = target: T1, Mushroom tyrosinase (mTyr); experiment: Mushroom tyrosinase inhibition, L-DOPA substrate (diphenolase); type: biochemical
Target sequence in this assay (C7FF04 1-392 limits assumed): as the sequence (C7FF04 1-392) above

mushroom tyrosinase [3] = target: T2, mushroom tyrosinase (Agaricus bisporus, UniProt C7FF04); experiment: Affinity-based ultrafiltration UPLC-QTOF-MS binding experiment; conditions: for after tyrosinase (area): UPLC-QTOF-MS peak area in 1000 ppm extract after incubation with mTyr; for Relative metabolite intensity upon treatment with mTyr: extract treated with mTyr, 15 min preincubation
T2 construct: purchased Sigma Chemical Co. T3824-50KU
Experimental: (§1) Affinity-based ultrafiltration was performed as previously described by Zuo et al. and Wang et al.[15]^,[19]^,[23]. First, […] of 0.25 M phosphate buffer (pH 6.8) with 10% glycerol was added to 13 μL of mushroom tyrosinase (144 U in the same phosphate buffer solution) and 100 μL of 1000 mg/mL extract (the test solution was consistently 3.3%). The final concentration of the extract was adjusted to 1000 ppm. The mixture was incubated for 15 or 50 min at 37 °C on a plate shaker. Then, the sample was centrifuged at 13,000 rpm for 20 min, and the supernatant was collected for analysis. The supernatant solution was filtered through a membrane (PTFE 0.2 μm, hydrophobic, Advantec, Japan), and 2 μL of each solution was injected for UPLC-PDA-QTOF-MS analysis.
(§2) The compounds from the P. rotundum var. subintegrum extract were analysed by UPLC-PDA-ESI-QTOF-MS. […] MS was performed in negative ion mode ([M − H]^−). N2 was used as the desolvation gas, the desolvation temperature was set to 350 °C at a flow rate of 400 L/h with a source temperature of 100 °C. The capillary and cone voltages were set to 2300 and 50 V, respectively. The data for each sample were collected with a scan time of 0.25 s and a 0.01 s interscan delay. Exact MS, MS/MS, and elemental analysis were confirmed using MassLynx software incorporated into the Waters instrument.

mushroom tyrosinase [4] = experiment: as above; conditions: UPLC-QTOF-MS peak area in 1000 ppm extract, not exposed to enzyme
Experimental: as §1, §2

B16F10 cells = experiment: CCK-8 cell viability assay, B16F10; type: cell-based, murine; conditions: 48 h
Experimental: (§3) The B16F10 melanoma and Melan-A normal murine melanocyte cells were purchased from the American Type Culture Collection (ATCC), respectively. The B16F10 cells were cultured in complete Dulbecco's Modified Eagle's Medium (DMEM high glucose, Gibco) supplemented with 10% (v/v) Fetal Bovine Serum (FBS, Gibco, USA), 100 U/mL penicillin, 50 μg/ml streptomycin. The Melan-A cells were cultured in RPMI -1640 medium supplemented with 10% FBS, 2 mM L -glutamine, 200 nM 12 -o-tetradecanoyl phorbol -13-acetate (Sigma, USA), 100 U/mL penicillin, 50 μ g/ml streptomycin, and grown in a humidified atmosphere containing 5% CO 2 in ai r at 37°C.
(§4) The cells were seeded in 96 -well plates at a density of 5 × 10^3 cells/well in cultured medium. The cells were treated with the corresponding concentrations of verproside for 48 h. Cell viability was measured in triplicate using a Cell Counting Kit -8 (CCK -8; Dojindo Molecular Technologies, Rockville, MD, USA) . Absorbance was determined using an Epoch microplate reader (BioTek Instruments, Winooski, VT, USA, #CK04) and calculated as a relative percentage (%) of the control […]
(§5) Figure S4 . The cell viability by verproside in B16F10 and Melna -A cells. (A) CCK -8 assays in B16F10 cells. (B) CCK -8 assays in Melna -A cells.
(§6) (1 picture or pasted object on this page, not shown here)

[5] = target: T3, recombinant human tyrosinase (hTyr) (Homo sapiens, UniProt P14679); experiment: Human tyrosinase inhibition, L-DOPA substrate; type: biochemical
T3 construct: His-tag; purchased Enzo Life Sciences BML-SE535-0100
T3 sequence (P14679 19-529): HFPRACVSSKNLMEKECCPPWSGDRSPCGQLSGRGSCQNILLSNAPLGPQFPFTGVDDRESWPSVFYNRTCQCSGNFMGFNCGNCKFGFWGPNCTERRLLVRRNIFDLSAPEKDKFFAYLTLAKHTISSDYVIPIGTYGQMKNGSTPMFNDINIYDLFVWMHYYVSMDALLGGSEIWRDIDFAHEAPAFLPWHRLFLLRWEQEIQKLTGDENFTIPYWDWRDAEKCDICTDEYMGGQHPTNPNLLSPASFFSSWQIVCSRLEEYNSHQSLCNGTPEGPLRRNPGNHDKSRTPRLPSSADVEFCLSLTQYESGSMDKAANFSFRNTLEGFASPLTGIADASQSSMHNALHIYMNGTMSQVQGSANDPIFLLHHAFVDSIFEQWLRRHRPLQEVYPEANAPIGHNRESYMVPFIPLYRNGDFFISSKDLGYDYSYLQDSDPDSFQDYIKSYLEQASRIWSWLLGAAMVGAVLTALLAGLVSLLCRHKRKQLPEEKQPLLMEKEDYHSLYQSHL
Experimental: The enzymatic activities of tyrosinase were tested in vitro with the substrates and inhibitors known to interact with mushroom and mammalian tyrosinases (http://www.brenda-enzymes.info). The Michaelis-Menten constant (Km) of proteins was calculated from Lineweaver-Burk plots for 1/V0 versus 1/[substrate]. Mushroom tyrosinase (mTyr, EC 1.14.18.1, Sigma Chemical Co., T3824-50KU) was used as described previously[9] with some modifications with either 3,4-Dihydroxy-L-phenylalanine (L-DOPA, D9628-5G) or L-tyrosine (T3754-50G) as the substrate. In the spectrophotometric experiments, the initial velocity (vi) of enzymatic activity was monitored by observing dopachrome formation at 475 nm with a UV–vis spectrophotometer (SpectraMax M4, Molecular Devices, Sunnyvale, CA, USA) at 37 °C. The reaction was performed in a 96-well plate. All samples were first dissolved in dimethyl sulfoxide (DMSO) at a concentration of 2 mM. […] The activity of recombinant human tyrosinas (hTyr, His-tag, Enzo® Life Sciences, NY, USA, Cat. No. BML-SE535-0100) was determined using L-DOPA as a substrate, and the procedure involved a previously described absorption assay. […] The reaction was incubated for 10 min at 37 °C and was monitored at 475 nm for dopachrome formation on a SpectraMax M4 multimode detection platform (Molecular Devices). […]

[6] = target: T3, recombinant human tyrosinase (hTyr); experiment: Human tyrosinase inhibition, L-tyrosine substrate; type: biochemical
mushroom tyrosinase [7] = target: T2, mushroom tyrosinase; experiment: Affinity-based time-dependent assay (slow-binding kinetics); type: biochemical; conditions: for Time dependence of inhibition: mushroom tyrosinase, L-tyrosine
Experimental: Time-dependent assays were carried out using 144 U of mushroom tyrosinase and L-tyrosine as the substrate in 0.25 M phosphate buffer (pH 6.8) at 30 °C. […] The data were analysed using a nonlinear regression program [SigmaPlot (SPCC Inc., Chicago, IL)] to give the individual parameters for each curve; vi (initial velocity), vs (steady–state velocity), kobs (apparent first–order rate constant for the transition from vi to vs), A (intensity), A0 (included to correct any possible deviation in the baseline), and Ki^app (apparent Ki) according to Equations. 2–4[26–28]: (2) A=vst + (vi–vs)[1 – exp (–kobst)]/kobs (3) v/v0= exp(−kobst) (4) kobs=k6+ [(k5 × [I])/(Ki^app + [I])]

Melan-A cells = experiment: CCK-8 cell viability assay, Melan-A; type: cell-based, murine; conditions: 48 h
Experimental: as §3, §4, §5, §6

[8] = mTyr, L-tyrosine substrate (monophenolase), read-out: Mushroom Tyrosinase L-Tyrosine IC50
[9] = mTyr, L-DOPA substrate, read-out: Mushroom Tyrosinase L-DOPA IC50

T2 sequence (C7FF04 1-392): as the sequence (C7FF04 1-392) above

SMILES | IC50 [1, 8] [µM] | inhibition at 100 µM [1] [%] | IC50 [2, 9] [µM] | after tyrosinase (area) (mushroom tyrosinase [3]) | Control (area) (mushroom tyrosinase [4]) | Relative metabolite intensity upon treatment with mTyr (mushroom tyrosinase [3]) | other results
COc1ccc(C(=O)OC2C3C=COC(OC4OC(CO)C(O)C(O)C4O)C3C3(CO)OC23)cc1OC (centres unmarked) [6-O-Veratroyl catalpol (9), 6-O-Veratroyl catalpol] | > 200 | 6.1 | > 200 | 11932 | 15756 | – | –
O=C(O[C@H]1[C@@H]2C=CO[C@@H](O[C@@H]3O[C@H](CO)[C@@H](O)[C@H](O)[C@H]3O)[C@@H]2[C@@]2(CO)O[C@@H]12)c1ccc(O)cc1 [Catalposide (3), Catalposide] | > 200 | 9.9 | > 200 | 21250 | 26121 | – | –
COc1ccc(C(=O)OC2C3C=COC(OC4OC(CO)C(O)C(O)C4O)C3C3(CO)OC23)cc1O (centres unmarked) [Isovanillyl catapol (7), Isovanillyl catapol] | > 200 | 10.1 | > 200 | 8093 | 12844 | – | –
O=C(OC1C2C=COC(OC3OC(CO)C(O)C(O)C3O)C2C(O)(CO)C1Cl)c1ccc(O)c(O)c1 (centres unmarked) [Longifolioside A (2), Longifolioside A] | 193 ± 10.5 | 36 | > 200 | 3852 | 10677 | significantly reduced | –
COc1ccc(/C=C/C(=O)O[C@H]2[C@@H]3C=CO[C@@H](O[C@@H]4O[C@H](CO)[C@@H](O)[C@H](O)[C@H]4O)[C@@H]3[C@@]3(CO)O[C@@H]23)cc1O [Minecoside (8), Minecoside] | 132 ± 8.3 | 41.7 | > 200 | 465 | 976 | – | –
COc1cc(C(=O)O[C@H]2[C@@H]3C=CO[C@@H](O[C@@H]4O[C@H](CO)[C@@H](O)[C@H](O)[C@H]4O)[C@@H]3[C@@]3(CO)O[C@@H]23)ccc1O [Picroside II (5), Picroside II] | – | 5.3 | – | 12194 | 17798 | – | IC50 [1]: > 200 µM; IC50 [2]: > 200 µM
O=C(OC1C2CC3OCC(O)(C1Cl)C2C(OC1OC(CO)C(O)C(O)C1O)O3)c1ccc(O)c(O)c1 (centres unmarked) [Piscroside C (6), Piscroside C] | > 200 | 6.7 | > 200 | 22171 | 44999 | – | –
O=C(/C=C/c1ccc(O)c(O)c1)O[C@@H]1C2C=CO[C@H](O[C@@H]3O[C@H](CO)[C@@H](O)[C@H](O)[C@H]3O)C2[C@]2(CO)O[C@H]12 (some centres unmarked) [Verminoside (4), Verminoside] | > 200 | 8.9 | > 200 | 2886 | 16481 | significantly reduced | –
O=C(OC1C2C=COC(OC3OC(CO)C(O)C(O)C3O)C2C2(CO)OC12)c1ccc(O)c(O)c1 (centres unmarked) [Verproside (1), Verproside] | 31.2 ± 2.1 | 98.4 | 177 ± 33.1 | 61907 | 112306 | significantly reduced | Cell viability (B16F10 cells): did not significantly affect cell viability; Ki ([1]; mTyr, L-tyrosine (monophenolase), read-out: Ki (inhibition constant)): 5.1 µM; Type of inhibition (monophenolase) ([1]; mTyr): competitive inhibition; Type of inhibition (monophenolase) ([1]; mTyr, listed as verproside): competitive; Type of inhibition (diphenolase) ([2]; mTyr diphenolase activity): competitive inhibition; IC50 [5]: 843 µM; IC50 ([6]; hTyr, L-tyrosine substrate): 197 µM; Efficacy relative to positive control kojic acid in hTyr ([6]; ratio of hTyr IC50 values, kojic acid / verproside): 5.6 fold; k5 (mushroom tyrosinase [7]; fit of kobs to Equation (4)): 0.04496 s⁻¹; k6 (mushroom tyrosinase [7]; fit of kobs to Equation (4)): 0.00001103 s⁻¹; Ki (mushroom tyrosinase [7]; fit of kobs to Equation (4), read-out: Ki^app (apparent Ki)): 2400 µM; Time dependence of inhibition (mushroom tyrosinase [7]; listed as verproside): time-dependent; also recorded: slow-binding; Time dependence of inhibition (mushroom tyrosinase [7]; listed as verproside (1)): time-dependent inhibition; Cell viability (Melan-A cells): did not significantly affect cell viability
